Test results: article PMC11091072, “Targeting bacterial nickel transport with aspergillomarasmine A suppresses virulence-associated Ni-dependent enzymes” (Nature Communications, 2024)
Values joined by “and” are separate entries in the source; they are usually repeats but may differ in a detail not shown here. Equal values may be shown once. Read-outs that look alike come from different tables or passages of the source.

Experiments:
S. aureus = assay type: cell-based, Staphylococcus aureus; conditions: 200 μM, 24 h
[1] = tested on: cellular Ni and Zn content of K. pneumoniae; assay: Cellular metal analysis by ICP-MS (60Ni, 66Zn); assay type: cell-based, Klebsiella pneumoniae
Description: The cellular Zn^2+ and Ni^2+ content of K. pneumoniae was carried out according to the method described by Maunders et al.[66] with some modifications. An overnight culture of K. pneumoniae was diluted 1/200 in LB medium (5 mL) and was either untreated or treated with 0.2 mM AMA or Zn-AMA. The cells were grown for 16 h at 37 °C, harvested by centrifugation, and washed twice with PBS containing 5 mM EDTA and twice with ultra-pure water. The cell pellet was subsequently digested in 0.25 mL 65% HNO3 at 80 °C for 30 minutes in borosilicate glass tubes using a water bath. The samples were diluted to 2% HNO3 and filtered through a 0.45 μm syringe filter. ^60Ni and ^66Zn were quantified using a Thermo iCAP Q ICP-MS.

[2] = tested on: K. pneumoniae urease activity (whole cell); assay: microbe, parasite or virus in culture; assay type: cell-based, Klebsiella pneumoniae ATCC 33495; conditions: artificial urine, 24 h; for K. pneumoniae urease-dependent pH change (pH): 37 °C
[3] = tested on: S. aureus urease activity (whole cell); assay type: cell-based, Staphylococcus aureus; conditions: artificial urine, 24 h; for Staphylococcus aureus urease-dependent pH change (pH): 37 °C
K. pneumoniae [4] = assay type: cell-based, Klebsiella pneumoniae; conditions: 200 μM, 24 h exposure
urease = molecular target: T1, urease (Klebsiella pneumoniae subsp. pneumoniae, UniProt A6TE40+A6TE41+A6TE42); assay: Urease activity in cell-free extracts (NH3 release, indophenol-hypochlorite); assay type: biochemical
T1 construct: endogenous in cells; host or cells: Klebsiella pneumoniae (ATCC 33495), sonicated and cleared lysate
T1 sequence (A6TE41 whole entry): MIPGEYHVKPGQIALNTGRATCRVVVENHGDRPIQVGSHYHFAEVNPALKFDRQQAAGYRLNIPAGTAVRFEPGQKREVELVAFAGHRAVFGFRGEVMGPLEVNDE
T1 sequence (A6TE40 whole entry): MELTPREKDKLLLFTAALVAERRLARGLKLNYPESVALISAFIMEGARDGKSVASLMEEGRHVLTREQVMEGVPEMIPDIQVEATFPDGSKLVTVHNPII
T1 sequence (A6TE42 whole entry): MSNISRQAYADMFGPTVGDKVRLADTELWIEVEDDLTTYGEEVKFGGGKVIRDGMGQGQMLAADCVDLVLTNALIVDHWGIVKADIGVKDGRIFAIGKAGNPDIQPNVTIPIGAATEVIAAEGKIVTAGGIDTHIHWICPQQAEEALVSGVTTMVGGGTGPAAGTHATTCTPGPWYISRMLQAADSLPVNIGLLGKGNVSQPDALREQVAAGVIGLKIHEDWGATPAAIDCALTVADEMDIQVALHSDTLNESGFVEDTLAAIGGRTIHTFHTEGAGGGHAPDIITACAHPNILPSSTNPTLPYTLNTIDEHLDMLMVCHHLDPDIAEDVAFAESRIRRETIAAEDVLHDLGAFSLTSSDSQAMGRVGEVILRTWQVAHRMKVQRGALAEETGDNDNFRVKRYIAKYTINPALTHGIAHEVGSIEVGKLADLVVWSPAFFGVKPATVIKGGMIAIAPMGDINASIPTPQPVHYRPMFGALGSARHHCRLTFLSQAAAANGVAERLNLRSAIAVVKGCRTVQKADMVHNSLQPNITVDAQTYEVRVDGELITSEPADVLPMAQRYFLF
Description: The cells were subsequently lysed by sonication, and cell debris was removed with centrifugation (20,000 × g, 10 min). […] Liberated NH3 was quantified using the indophenol-hypocholorite reaction as previously described. The total amount of protein was quantified by Bradford assay using bovine serum albumin as standard. Each assay was performed in duplicate wells.
FIG S7 Evaluation of Zn-AMA as a direct inhibitor of urease. A) Checkerboard analysis of Zn-AMA and AHA on urease activity of K. […]
Dose- […]
response curves of fluorofamide, Zn-AMA, and AMA inhibiting the urease-catalyzed release of NH3 quantified with indophenol hypochlorite. The rates of NH3 production were measured over 20 min and were normalized to total protein concentration. Experiments were performed in duplicate. Individual replicates are shown as colored circles.

K. pneumoniae [5] = assay type: cell-based, Klebsiella pneumoniae; conditions: for Growth curve (culture density): 50 μM
HEK293 cells = assay: HEK293 cytotoxicity assay (Cell Titer Glo 2.0)
[6] = tested on: struvite crystallization in K. pneumoniae cultures; assay: Struvite crystal nucleation in artificial urine cultures; assay type: cell-based, Klebsiella pneumoniae
Description: A The metal complexed structure, selectivity, and affinity of AMA. The constituents of AMA are labeled L-aspartate (L-Asp) and 2,3-diaminopropionic acid (APA). B Dose-response urease inhibition assays in K. pneumoniae. […] C Dose-response effect of AMA and Zn-AMA on the nucleation of struvite crystals in K. pneumoniae cultures grown in artificial urine. Crystals were examined microscopically in 96-well plates and visually quantified. […] The data represent the representative mean of two replicates. D Quantification of planktonic growth and crystal violet-stained biofilms of K. pneumoniae grown in artificial urine and varying concentrations of Zn-AMA. […] Data represent mean ± s.d. of four technical replicates. E ICP-MS quantification of cellular ^60Ni and ^66Zn content in K. pneumoniae untreated or treated with 200 μM AMA, or Zn-AMA. […] Whole-cell hydrogenase assays were performed by adding benzyl viologen (BV) at a final concentration of 1 mg/mL and monitoring its reduction at an absorbance of 630 nm. Data represent the mean of two technical replicates.
FIG S5 Microscopic detection of struvite crystals grown in artificial urine cultures of K. pneumoniae. Top row, the concentration-dependent effect of AMA on struvite formation. Bottom row, the concentration-dependent effect of Zn-AMA on struvite formation.
Bacteria were grown in 96 well flat-bottom plates for 24h at 37 °C. Brightfield micrographs were taken with a BioTek Cytation cell imaging reader at 4x magnification. Four images were taken per well and were digitally stitched to generate whole-well images. […]

[7] = K. pneumoniae treated with 200 μM

Q: For N[C@@H](CN[C@@H](CN[C@@H](CC(=O)O)C(=O)O)C(=O)O)C(=O)O [AMA, aspergillomarasmine A], which “bacterial viability (spot dilutions)” value (S. aureus) is on record?
A: not lethal to bacteria

Q: What about the “effect on intracellular Ni^2+ levels” value ([1]; 200 μM, ICP-MS) of the same compound?
A: reduced intracellular Ni^2+ levels

Q: What about the “effect on intracellular Zn^2+ levels” value ([1]; 200 μM, ICP-MS) of the same compound?
A: without affecting Zn^2+ levels

Q: And the “ICP-MS cellular Ni” value [1, 7]?
A: 2.92 µM and 2.63 µM

Q: And the “ICP-MS cellular Zn” value [1, 7]?
A: 0.75 µM and 0.88 µM

Q: What about the “K. pneumoniae urease-dependent pH change (pH)” value ([2]; 0.19 μM) of the same compound?
A: 8.15 and 8.19

Q: What about the “K. pneumoniae urease-dependent pH change (pH)” value ([2]; 0.39 μM) of the same compound?
A: 8.16 and 8.12

Q: What about the “K. pneumoniae urease-dependent pH change (pH)” value ([2]; 0.78 μM) of the same compound?
A: 8.08 and 8.03

Q: What about the “K. pneumoniae urease-dependent pH change (pH)” value ([2]; 1.56 μM) of the same compound?
A: 7.97 and 7.75

Q: What about the “K. pneumoniae urease-dependent pH change (pH)” value ([2]; 3.12 μM) of the same compound?
A: 7.86 and 7.57

Q: And the “K. pneumoniae urease-dependent pH change (pH)” value ([2]; 6.25 μM)?
A: 7.81 and 7.46

Q: What about the “K. pneumoniae urease-dependent pH change (pH)” value ([2]; 12.5 μM) of the same compound?
A: 7.78 and 7.33

Q: And the “K. pneumoniae urease-dependent pH change (pH)” value ([2]; 25 μM)?
A: 7.75 and 7.40

Q: What about the “K. pneumoniae urease-dependent pH change (pH)” value ([2]; 50 μM) of the same compound?
A: 7.87 and 7.54

Q: What about the “K. pneumoniae urease-dependent pH change (pH)” value ([2]; 100 μM) of the same compound?
A: 8.02 and 7.77

Q: And the “K. pneumoniae urease-dependent pH change (pH)” value ([2]; 200 μM)?
A: 8.03 and 8.04

Q: And the “effect on urease activity” value ([2]; K. pneumoniae)?
A: did not significantly affect urease activity

Q: What about the “Staphylococcus aureus urease-dependent pH change (pH)” value ([3]; 0.19 μM) of the same compound?
A: 6.95 and 7.25

Q: And the “Staphylococcus aureus urease-dependent pH change (pH)” value ([3]; 0.39 μM)?
A: 6.96 and 7.10

Q: What about the “Staphylococcus aureus urease-dependent pH change (pH)” value ([3]; 0.78 μM) of the same compound?
A: 6.77 and 6.94

Q: What about the “Staphylococcus aureus urease-dependent pH change (pH)” value ([3]; 1.56 μM) of the same compound?
A: 6.69 and 6.68

Q: What about the “Staphylococcus aureus urease-dependent pH change (pH)” value ([3]; 3.12 μM) of the same compound?
A: 6.42 and 6.51

Q: What about the “Staphylococcus aureus urease-dependent pH change (pH)” value ([3]; 6.25 μM) of the same compound?
A: 6.40 and 6.45

Q: And the “Staphylococcus aureus urease-dependent pH change (pH)” value ([3]; 12.5 μM)?
A: 6.33 and 6.40

Q: What about the “Staphylococcus aureus urease-dependent pH change (pH)” value ([3]; 25 μM) of the same compound?
A: 6.33 and 6.38

Q: What about the “Staphylococcus aureus urease-dependent pH change (pH)” value ([3]; 50 μM) of the same compound?
A: 6.38

Q: And the “Staphylococcus aureus urease-dependent pH change (pH)” value ([3]; 100 μM)?
A: 6.31 and 6.37

Q: And the “Staphylococcus aureus urease-dependent pH change (pH)” value ([3]; 200 μM)?
A: 6.35 and 6.38

Q: What about the “effect on urease activity” value ([3]; S. aureus) of the same compound?
A: inhibited urease activity similarly

Q: What about the “bacterial viability (spot dilutions)” value (K. pneumoniae [4]) of the same compound?
A: do not affect bacterial viability

Q: And the “Specific activity (cell-free indophenol urease assay)” value (urease; AMA 0.007813 mM)?
A: 42.56 nmol/min/mg and 44.10 nmol/min/mg

Q: What about the “Specific activity (cell-free indophenol urease assay)” value (urease; AMA 0.015625 mM) of the same compound?
A: 40.68 nmol/min/mg and 41.88 nmol/min/mg

Q: And the “Specific activity (cell-free indophenol urease assay)” value (urease; AMA 0.03125 mM)?
A: 40.85 nmol/min/mg and 42.39 nmol/min/mg

Q: What about the “Specific activity (cell-free indophenol urease assay)” value (urease; AMA 0.0625 mM) of the same compound?
A: 40.85 nmol/min/mg

Q: And the “Specific activity (cell-free indophenol urease assay)” value (urease; AMA 0.125 mM)?
A: 39.49 nmol/min/mg and 40.51 nmol/min/mg

Q: And the “Specific activity (cell-free indophenol urease assay)” value (urease; AMA 0.25 mM)?
A: 37.95 nmol/min/mg and 38.29 nmol/min/mg

Q: What about the “Specific activity (cell-free indophenol urease assay)” value (urease; AMA 0.5 mM) of the same compound?
A: 35.56 nmol/min/mg and 36.75 nmol/min/mg

Q: What about the “Specific activity (cell-free indophenol urease assay)” value (urease; AMA 1 mM) of the same compound?
A: 35.04 nmol/min/mg and 35.73 nmol/min/mg

Q: And the “direct inhibition of urease” value (urease; cell-free extract)?
A: excluded the direct inhibition of urease

Q: And the “Growth of K. pneumoniae with urea as a sole nitrogen source (OD600)” value (K. pneumoniae [5])?
A: 1.19

Q: And the “Growth curve (culture density)” value (K. pneumoniae [5]; 15.15 h)?
A: 0.165 and 0.162

Q: And the “Growth curve (culture density)” value (K. pneumoniae [5]; 16.15 h)?
A: 0.186 and 0.183

Q: What about the “Growth curve (culture density)” value (K. pneumoniae [5]; 17.15 h) of the same compound?
A: 0.218 and 0.214

Q: And the “growth with urea as sole nitrogen source” value (K. pneumoniae [5]; Chelex-treated nitrogen-limited medium)?
A: not viable

Q: And the “cytotoxicity toward HEK293” value (HEK293 cells; 48 h, up to 512 μg/mL (~1.4 mM))?
A: no significant cytotoxicity

Q: And the “IC50 (HEK293 viability)” value (HEK293 cells; 48 h, highest tested 512 µg/mL (MG-132 62.5 µg/mL), Zn and Ni values of low confidence)?
A: Does no t fit to the mo del

Q: And the “HEK 293T cytotoxicity assay raw signal” value (HEK293 cells; AMA 0.5 μg/mL)?
A: 625667 and 666020 and 709951

Q: What about the “HEK 293T cytotoxicity assay raw signal” value (HEK293 cells; AMA 1 μg/mL) of the same compound?
A: 642619 and 585959 and 657816

Q: What about the “HEK 293T cytotoxicity assay raw signal” value (HEK293 cells; AMA 2 μg/mL) of the same compound?
A: 663671 and 698910 and 700863

Q: What about the “HEK 293T cytotoxicity assay raw signal” value (HEK293 cells; AMA 4 μg/mL) of the same compound?
A: 595054 and 606045 and 670753

Q: And the “HEK 293T cytotoxicity assay raw signal” value (HEK293 cells; AMA 8 μg/mL)?
A: 579865 and 576275 and 764893

Q: What about the “HEK 293T cytotoxicity assay raw signal” value (HEK293 cells; AMA 16 μg/mL) of the same compound?
A: 628738 and 611425 and 704710

Q: And the “HEK 293T cytotoxicity assay raw signal” value (HEK293 cells; AMA 32 μg/mL)?
A: 627377 and 612979 and 683402

Q: And the “HEK 293T cytotoxicity assay raw signal” value (HEK293 cells; AMA 64 μg/mL)?
A: 591894 and 576108 and 744283

Q: What about the “HEK 293T cytotoxicity assay raw signal” value (HEK293 cells; AMA 128 μg/mL) of the same compound?
A: 558480 and 565965 and 608380

Q: What about the “HEK 293T cytotoxicity assay raw signal” value (HEK293 cells; AMA 256 μg/mL) of the same compound?
A: 567074 and 538238 and 648309

Q: What about the “HEK 293T cytotoxicity assay raw signal” value (HEK293 cells; AMA 512 μg/mL) of the same compound?
A: 571681 and 577586 and 600345

Q: And the “Struvite crystal quantification (count)” value ([6]; 3.12 μM)?
A: 59 and 42

Q: And the “Struvite crystal quantification (count)” value ([6]; 6.25 μM)?
A: 99 and 82

Q: What about the “Struvite crystal quantification (count)” value ([6]; 12 μM) of the same compound?
A: 74 and 95

Q: And the “Struvite crystal quantification (count)” value ([6]; 25 μM)?
A: 68 and 103

Q: And the “Struvite crystal quantification (count)” value ([6]; 50 μM)?
A: 72 and 91

Q: And the “Struvite crystal quantification (count)” value ([6]; 100 μM)?
A: 70 and 83

Q: What about the “Struvite crystal quantification (count)” value ([6]; 200 μM) of the same compound?
A: 36 and 49
